Experiment in all cases: NCI-60 cell line screen, 48 h
Test [1] has as its system LOX IMVI melanoma.
The test system of test [2] is IGROV1 ovarian.
In test [3] the test system is CAKI-1 renal.
Test [4] relates to K-562 leukemia.
The test system of test [5] is MCF7 breast.
Test [6] has as its system BT-549 breast.
For test [7], the system named is SF-268 CNS.
The test system of test [8] is OVCAR-3 ovarian.
Test [9] has as its system MDA-MB-435.
The subject of test [10] is RPMI-8226 leukemia.

Where “and” joins values, the source holds several entries; their conditions need not be identical. Equal entries are not always repeated.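 Cells were grown in 96-well plates and exposed to each compound for 48 hours at five concentrations; endpoints were interpolated linearly between bracketing concentrations, or set to the highest concentration if not reached. Abbreviation: GI50, concentration required for 50% inhibition of growth. Definition used: TGI = concentration required for complete inhibition of growth.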

With `Nc1n[nH]c2ccc([C@H]3[C@@H]4C5CCC(C5)[C@@H]4c4c(ccc5[nH]ncc45)N3S(=O)(=O)C3CC3)cc12` (some centres not stated), the GI50 in [1] was 0.303 µM; in test [2], 0.269 µM; in test [3], 0.156 µM; in test [4] it was 0.115 µM; in test [5] it was 0.2 µM; in test [6], 0.34 µM. The GI50 in test [7] is 0.618 µM; in test [8], 0.181 µM; in [9] it was 0.141 µM; in test [10], 0.176 µM. In addition, the TGI in test [1] was 6.45 µM; in test [2], more than 38.7 µM; in test [3] it was 3.42 µM; in test [5] it was more than 35.9 µM; in test [6], 5.73 µM; in [7] it was 14 µM. The TGI in [8] came to 7.16 µM; in test [9] it was 1.35 µM; in test [10], 7.46 µM.

As to `CC(=O)N[C@@H](Cc1ccc(OP(=O)(O)O)cc1)C(=O)N[C@H]1CCC(=O)N2CCC[C@@H](C(=O)NCc3cccc4ccccc34)N2C1=O`, the GI50 in test [1], in test [2], in [3], in test [4], in test [5] and in test [6] was more than 25 µM each time. For the same compound, the GI50 in test [7], in [8], in test [9] and in [10] was more than 25 µM in each case. Moreover, the TGI in [1], in test [2], in test [3], in test [4], in test [5] and in test [6] was more than 25 µM throughout. Also, the TGI in test [7], in [8], in [9] and in test [10] was more than 25 µM throughout.

As to `COc1cccc(Nc2ncnn3ccc(CN4CC[C@@H](N)[C@H](O)C4)c23)c1`, the GI50 in test [1] was 4.58 µM and 1.33 µM; in test [2] it was 0.407 µM and 0.0561 µM; in test [3], 0.2 µM and 0.242 µM; in [4] it was 0.285 µM and 0.168 µM; in test [5] it was 11.3 µM and > 4.2 µM; in [6], 14.2 µM and > 4.68 µM. Further, the GI50 in [7] was 4.42 µM and 1.62 µM; in test [8], 3.92 µM and 1.63 µM; in test [9], 14.8 µM and > 4.71 µM; in test [10], 20.9 µM and > 5.39 µM. In addition, the TGI was 21.1 µM and > 5.65 µM in test [1]; 6.79 µM and 2.73 µM in [2]; 2.52 µM and > 4.35 µM in test [3]; 10.2 µM and > 10 µM in [4]; 24.5 µM and > 8.69 µM in test [5]; 47.7 µM and > 7.41 µM in test [6]. Moreover, the TGI in [7] is 99.7 µM and > 6.67 µM; in [8], more than 60.8 µM; in test [9], 29.9 µM and > 10 µM; in test [10] it was 68 µM and > 10 µM.

Turning to `Clc1ccc(Nc2ncnc3ccccc23)cc1`, the GI50 in [1] is 46.8 µM; in test [2] it was 12.9 µM; in test [3], 13.1 µM; in [4], 28 µM; in test [5] it was 30.4 µM; in test [6], 72.8 µM. Further, the GI50 in test [7] is 38.7 µM; in test [8], 34.9 µM; in [9], 42.2 µM. For the same compound, the TGI in [1] was more than 100 µM; in test [2] it was more than 100 µM; in test [3] it was 61.1 µM; in test [4] it was more than 100 µM; in test [5], more than 100 µM; in test [6] it was more than 100 µM. Besides, the TGI in [7], in test [8] and in test [9] was more than 100 µM in each case.

Regarding `COc1ccc(C(=O)O[C@@H]2CCN3CC[C@H](C)[C@H]23)cc1`, the TGI in test [1], in test [2], in test [3], in test [5], in test [6] and in [7] was more than 100 µM throughout. Moreover, the TGI in [8], in [9] and in test [10] was more than 100 µM throughout.

With `CC[C@@]1(O)C(=O)OCc2c1cc1n(c2=O)Cc2cc3c(OC)cccc3nc2-1`, the GI50 was 0.00444 µM in test [1]; more than 100 µM in test [2]; 0.00503 µM and < 0.215 µM in [3]; 0.0035 µM in [7]; 0.0434 µM in [8]. The TGI in [1] was 1.14 µM; in test [2] it was more than 100 µM; in [3], 0.238 µM; in test [4], 17.8 µM; in test [5], more than 100 µM; in [6], more than 39.8 µM. Moreover, the TGI amounted to 1.01 µM in test [7], 1.21 µM in test [8] and 1.81 µM in test [10].

As for `Cc1ccc([I+]c2ccc(C)cc2)cc1`, the GI50 is 2.33 µM in test [1]; 4.42 µM in test [2]; 4.55 µM in [3]; 4.01 µM in [5]; 5.28 µM in test [6]; 7.49 µM in test [7]. Besides, the figures for the GI50 in [8], in test [9] and in test [10] were 7.63 µM, 5.28 µM and 1.16 µM, respectively. Further, the TGI in [1] is more than 100 µM; in test [2] it was more than 100 µM; in test [3], 71.4 µM; in test [5], more than 100 µM; in [6], 75.7 µM; in test [7] it was more than 100 µM. In addition, the TGI in test [8] was more than 100 µM; in test [9], 77.3 µM; in test [10], 50 µM.

For `Nc1cc2c(c3ccccc13)C(CCl)CN2C(=O)c1cc2cc(NC(=O)c3cc4ccccc4o3)ccc2[nH]1` (configuration not stated), the GI50 in test [1], in test [3], in [5] and in test [9] was more than 0.11 µM in each case. The TGI in [1] was 256 µM; in [3], less than 0.11 µM; in test [5], less than 0.11 µM; in [6], 0.00708 µM; in test [9] it was less than 0.11 µM.

As for `O=P1(O)c2ccccc2CSCc2ccccc21`, the TGI in [1], in test [2], in [3], in test [4], in [5] and in test [6] was more than 100 µM each time. Also, the TGI in test [7], in [8] and in [9] was more than 100 µM each time.

With `COc1ccc(-c2nc(Nc3ccc(F)cc3)nc(Nc3ccc4c(c3)nc(C)n4Cc3ccccc3)n2)cc1`, the GI50 is 3.98 µM in test [1]; 5.41 µM in test [2]; 3.44 µM in test [4]; 3.14 µM in [5]; 3.52 µM in [6]; 7.25 µM in test [7]. Besides, the GI50 was 6.54 µM in test [8], 3.27 µM in test [9] and 2.48 µM in [10]. Also, the TGI is 57.6 µM in [1]; more than 100 µM in [2]; more than 100 µM in [4]; more than 100 µM in test [5]; more than 100 µM in test [6]; more than 100 µM in test [7]. For the same compound, the TGI in [8] was more than 100 µM; in test [9] it was more than 100 µM; in [10], 88.1 µM.

As to `CSc1nc(SC)c2c(C)cn(Cc3ccccc3)c2n1`, the TGI in test [1], in test [2], in test [3], in test [5], in [6] and in [7] was more than 100 µM throughout. Moreover, the TGI in [8], in [9] and in [10] was more than 100 µM in each case.

Turning to `CCOC(=O)c1c2c(n(Cc3ccccc3)c1C)-c1nc[nH]c1C(=O)C2=O`, the GI50 in test [1] is 14.9 µM; in test [2] it was 16.7 µM; in test [3], 18.5 µM; in [4], 3.08 µM; in test [6], 17 µM; in [7], 17.1 µM. For the same compound, the GI50 in test [8] is 13.9 µM; in test [9], 16.9 µM; in test [10] it was 1.1 µM. In addition, the TGI in test [1] is 28.1 µM; in test [2] it was 30.6 µM; in test [3], 38.5 µM; in test [4], 19.1 µM; in test [6], 31.1 µM; in test [7] it was 31.2 µM. The values for the TGI in test [8], in test [9] and in [10] were 26.8 µM, 31.3 µM and 10.7 µM, respectively.

For `Cc1cn2c(/C=N/NC3=NCCN3)c(-c3ccc(Cl)c([N+](=O)[O-])c3)nc2s1`, the GI50 in test [1] was 0.871 µM; in test [3] it was 1.98 µM; in test [4] it was 1.08 µM; in test [5] it was 3.8 µM; in [6] it was 0.892 µM; in [10] it was 1.27 µM. Besides, the TGI is 1.6 µM in test [1]; 10 µM in [3]; 2.34 µM in test [4]; more than 50 µM in [5]; 1.77 µM in [6]; more than 50 µM in test [10].

With `C#CCOCCCC(=O)O`, the TGI in test [1], in test [2], in test [3], in test [4], in [5] and in test [6] was more than 100 µM each time. The TGI in [8] and in [10] was more than 100 µM in each case.

For the compound `CC12OC(C(=O)C13CC3)C1C(=O)c3cccc(O)c3C(=O)C12` (configuration not stated), the GI50 in [1] is 5.1 µM; in test [2], 12.2 µM; in test [3], 3.43 µM; in [5] it was 14.3 µM; in test [6], 19.1 µM; in test [7], 6.08 µM. For the same compound, the results for the GI50 in test [8], in test [9] and in test [10] were 2.49 µM, 16.9 µM and 2.22 µM, respectively. For the same compound, the TGI in [1] was more than 100 µM; in test [2], more than 100 µM; in [3] it was 11.1 µM; in test [5], more than 57.9 µM; in test [6] it was 58.1 µM; in test [7] it was more than 68.5 µM. Further, the TGI in [8] is 19.9 µM; in test [9], more than 57.7 µM; in test [10], more than 100 µM.

For `O=C(O)c1ccc(NCn2nc(-c3ccccc3O)oc2=S)cc1O`, the GI50 is 25.4 µM in test [1]; more than 100 µM in [2]; more than 100 µM in test [3]; more than 100 µM in [4]; more than 100 µM in test [5]; more than 100 µM in test [6]. Further, the GI50 in test [7], in [8] and in test [9] was more than 100 µM in each case. The TGI in [1], in [2], in test [3], in test [4], in [5] and in test [6] was more than 100 µM each time. For the same compound, the TGI in test [7], in test [8] and in test [9] was more than 100 µM in each case.

For `COC(=O)CC12CC(NC(=O)c3csc([C@@H](C[C@H](C(C)C)N(C)C(=O)[C@@H](NC(=O)[C@H]4CCCCN4C)C(C)C)OC(C)=O)n3)(C1)C2`, the GI50 in test [1] is 0.00446 µM and 0.0121 µM; in test [2] it was 0.00917 µM and 0.0162 µM; in test [4] it was 0.00194 µM and 0.00333 µM; in test [5] it was 0.00289 µM and 0.00405 µM; in test [6], 0.00575 µM and 0.022 µM; in test [7] it was 0.0074 µM and 0.0204 µM. Moreover, the GI50 was 0.0029 µM and 0.00333 µM in [8]; 0.000341 µM and 0.00333 µM in test [9]; 0.00351 µM and 0.0129 µM in test [10]. Moreover, the TGI was more than 33.3 µM in [1]; more than 33.3 µM in test [2]; more than 33.3 µM in test [4]; more than 33.3 µM in test [5]; 0.246 µM and 0.253 µM in test [6]; more than 33.3 µM in test [7]. In addition, the TGI is 0.00165 µM and 0.00449 µM in test [9]; more than 33.3 µM in [10].

On to `CN(CCNc1ccc(C(=N)N)cc1)c1ccc(C(=N)N)cc1`, for which the GI50 in test [1] is more than 100 µM; in test [2], 68.8 µM; in [3], 2.7 µM; in [4], 27.6 µM; in [5], 30.5 µM; in [6] it was 13.8 µM. Further, the GI50 in test [7] is 37.8 µM; in test [8], 37.3 µM; in test [9] it was 66.3 µM. The TGI was more than 100 µM in [1]; more than 100 µM in [2]; 37.3 µM in [3]; more than 100 µM in test [4]; more than 100 µM in test [5]; 38.4 µM in test [6]. The TGI in test [7], in [8] and in test [9] was more than 100 µM in each case.
